From PMC5719431, “Structural insights into the potency of SK channel positive modulators” (Scientific Reports, 2017)

How the values were obtained:
[1] = target: T1, SK2-a channel (SK2, KCa2.2) co-expressed with CaM (Rattus norvegicus, UniProt P0DP29+P70604); test: inside-out patch clamp, potentiation of SK2 current; type: cell-based
T1 construct: gene Kcnn2; full-length SK2-a co-transfected with CaM and GFP in TsA201 cells; tetrameric channel

[2] = target: T2, CaM/CaMBD complex (CaM and SK2 channel fragment R395–Q486) (Rattus norvegicus, UniProt P0DP29+P70604); test: X-ray crystal structure (soaked crystals); type: binding; details: Ca2+-CaM, site at interface of CaMBD and CaM N-lobe
T2 construct: gene Kcnn2; both expressed in E. coli Rosetta-2
T2 sequence (P70604 396-487, one chain of several): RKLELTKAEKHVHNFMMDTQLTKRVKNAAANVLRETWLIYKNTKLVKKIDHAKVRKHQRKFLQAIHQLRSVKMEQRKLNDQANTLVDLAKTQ

T1 sequence (P70604 whole entry, one chain of several): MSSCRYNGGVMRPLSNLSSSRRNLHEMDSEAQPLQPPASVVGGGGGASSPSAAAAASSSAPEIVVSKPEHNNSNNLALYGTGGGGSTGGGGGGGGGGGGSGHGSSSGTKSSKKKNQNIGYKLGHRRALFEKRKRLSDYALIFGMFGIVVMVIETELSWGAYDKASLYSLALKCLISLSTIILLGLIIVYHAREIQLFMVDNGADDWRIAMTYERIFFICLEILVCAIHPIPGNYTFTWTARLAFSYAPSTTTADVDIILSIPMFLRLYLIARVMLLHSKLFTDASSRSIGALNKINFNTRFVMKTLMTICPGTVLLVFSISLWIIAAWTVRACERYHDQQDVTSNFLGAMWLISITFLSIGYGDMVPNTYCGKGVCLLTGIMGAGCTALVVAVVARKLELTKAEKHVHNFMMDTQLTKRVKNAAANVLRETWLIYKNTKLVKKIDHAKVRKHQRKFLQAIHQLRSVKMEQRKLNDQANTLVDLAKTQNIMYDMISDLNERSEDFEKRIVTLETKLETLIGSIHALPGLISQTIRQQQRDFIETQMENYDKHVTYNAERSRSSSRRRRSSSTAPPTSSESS

EC50 [1] | Structure (SMILES) | X-ray crystal structure (soaked crystals) ([2]; soaked about 1 month) | X-ray crystal structure (soaked crystals) ([2]; soaked about 5 months)
0.552 ± 0.083 µM | O=C1Nc2c(ccc(Cl)c2Cl)C1=NO [NS309] |  | 
3.87 ± 0.88 µM | Cc1cc2c(cc1Br)NC(=O)C2=NO [SKS-11, 6-bromo-5-methyl-1H-indole-2,3-dione-3-oxime] | crystal structures of SKS-11 and SKS-14 in complex with their binding pocket | 
33.2 ± 4.8 µM | O=C1Nc2c(F)cccc2C1=NO [SKS-14, 7-fluoro-3-(hydroxyimino)indolin-2-one] |  | crystal structures of SKS-11 and SKS-14 in complex with their binding pocket
